Laboratory results published in patent US20090076012A1, “Modulation of pathogenicity” (priority 2002, published 2009).

The molecules below were run on bioluminescent sensor strain Escherichia coli MT102 (pSB403) (assay: Biosensor assay: quorum sensing inhibition, bioluminescence of the sensor strain). Conditions: 3oxo-C6-HSL 100 nM; bioluminescence after 4 hours at 30° C.
Assay type: cell-based
Procedure: Quorum sensing inhibition of the compounds was investigated with the aid of the bioluminescent sensor strain Escherichia coli MT102 (pSB403) (Winson et al., FEMS Microbiol. Lett. 163:185-92, 1998). Plasmid pSB403 contains the Photobacterium fischeri luxR gene together with the […] promoter region as a transcriptional fusion to the bioluminescence genes luxCDABE of Photorhabdus luminescence.
Inhibitory studies were conducted in a microtitre dish assay as follows: the E. coli sensor strain grown over night in LB medium (Sambrook et al., Molecular Cloning: A Laboratory Manual. 2nd Edn. Cold Spring Harbor Laboratory, New York, 1989) was diluted 1:4 and grown for another 1 hour at 30° C. After addition of 3oxo-C6-HSL (final concentration 100 nM) 100 μl of an exponential culture suspension were filled in the wells of a FluoroNunc Polysorp microtitre dish. The test compounds were added to the culture in different concentrations and bioluminescence was measured after 4 hours of incubation at 30° C. with a Lamda Fluoro 320 Plus reader (Bio-Tek Instruments). Inhibitor-mediated reduction of light emission was correlated with the value obtained without addition of the test compounds. IC50 values (concentration of inhibitor required for 50% inhibition of the signal compared to the signal without inhibitor) were determined by using a fitting function after drawing a graph of the activities of eight different inhibitor concentrations.
Molecule `CCn1nc(C)c(Br)c1C(=O)NNC(=O)c1ccc(Cl)s1` [Compound 67, 4-Bromo-2ethyl-5-methyl-2H-pyrazole-3-carboxylic acid N′-(5-chloro-thiophene-2-carbonyl)-hydrazide] has an IC50 of over 100 µM. Molecule `CCn1nc(C)c(Br)c1C(=O)NNC(=O)c1ccc(Cl)s1` [Compound 73, 4-Bromo-2-ethyl-5-methyl-2H-pyrazole-3-carboxylic acid N′-(5-chloro-thiophene-2-carbonyl)-hydrazide] has an IC50 of 1 to 50 µM.

Same assay, conditions: Escherichia coli, 4 h, 3oxo-C6-HSL 100 nM; bioluminescence after 4 hours at 30° C.
`O=C(NNC(=O)c1cccs1)c1ccsc1` [Compound 47, Thiophene-3-carboxylic acid N′-(thiophene-2-carbonyl)-hydrazide] gave an IC50 of 1 to 50 µM. `O=C(NNC(=O)c1sccc1Br)c1ccc(Cl)s1` [Compound 48] was tested, and the IC50 was 50 to 100 µM. `O=C(NNC(=O)c1sccc1Cl)c1sccc1Cl` [Compound 49, 3-Chloro-thiophene-2-carboxylic acid N′-(3-chloro-thiophene-2-carbonyl)-hydrazide] showed an IC50 of 50 to 100 µM. In the case of `COc1c(C(=O)NNC(=O)c2cccs2)csc1Cl` [Compound 50, 5-Chloro-4-methoxy-thiophene-3-carboxylic acid N′-(thiophene-2-carbonyl)-hydrazide], the IC50 is reported as 50 to 100 µM. `O=C(NNC(=O)c1sccc1Cl)c1cccs1` [Compound 51, 3-Chloro-thiophene-2-carboxylic acid N′-(thiophene-2-carbonyl)-hydrazide] gave an IC50 of 50 to 100 µM. `O=C(NNC(=O)c1ccc(Cl)s1)c1cccs1` [Compound 52, Thiophene-2-carboxylic acid N′-(5-chloro-thiophene-2-carbonyl)-hydrazide] showed an IC50 of 50 to 100 µM. For `COc1c(C(=O)NNC(=O)c2ccc(C)s2)csc1Br` [Compound 53, 5-Bromo-4-methoxy-thiophene-3-carboxylic acid N′-(5-methyl-thiophene-2-carbonyl)-hydrazide], the IC50 was 1 to 50 µM. `Cc1ccc(C(=O)NNC(=O)c2cccs2)s1` [Compound 54, Thiophene-2-carboxylic acid N′-(5-methyl-thiophene-2-carbonyl)-hydrazide] gave an IC50 of 1 to 50 µM. For `O=C(NNC(=O)c1sccc1Br)c1cccs1` [Compound 55, Thiophene-2-carboxylic acid N′-(3-bromo-thiophene-2-carbonyl)-hydrazide], the IC50 was 1 to 50 µM. `CCOc1ccsc1C(=O)NNC(=O)c1sccc1Br` [Compound 56, 3-Bromo-thiophene-2-carboxylic acid N′-(3-ethoxy-thiophene-2-carbonyl)-hydrazide] was tested, and the IC50 was 1 to 50 µM. With `Cc1ccc(C(=O)NNC(=O)c2sccc2Br)s1` [Compound 57, 3-Bromo-thiophene-2-carboxylic acid N′-(5-methyl-thiophene-2-carbonyl)-hydrazide] the IC50 was 1 to 50 µM. For `O=C(NNC(=O)c1sccc1Cl)c1ccc(Cl)s1` [Compound 58, 3-Chloro-thiophene-2-carboxylic acid N′-(5-chloro-thiophene-2-carbonyl)-hydrazide], the IC50 was 50 to 100 µM. Work on `O=C(NNC(=O)c1ccc(Br)s1)c1cccs1` [Compound 59, Thiophene-2-carboxylic acid N′-(5-bromo-thiophene-2-carbonyl)-hydrazide] yielded an IC50 of 1 to 50 µM. `O=C(NNC(=O)c1sc2ccccc2c1Cl)c1cccs1` [Compound 60, 3-Chloro-benzo[b]thiophene-2-carboxylic acid N′-(thiophene-2-carbonyl)-hydrazide] was tested, and the IC50 was 1 to 50 µM. `O=C(NNC(=O)c1sc2ccccc2c1Cl)c1sccc1Br` [Compound 61, 3-Chloro-benzo[b]thiophene-2-carboxylic acid N′-(3-bromo-thiophene-2-carbonyl)-hydrazide] was tested, and the IC50 was 50 to 100 µM. For `O=C(NNC(=O)c1sc2ccccc2c1Cl)c1ccc(Br)s1` [Compound 62, 3-Chloro-benzo[b]thiophene-2-carboxylic acid N′-(5-bromo-thiophene-2-carbonyl)-hydrazide], the IC50 was 50 to 100 µM. In the case of `Cc1nn(C)c2ncc(C(=O)NNC(=O)c3cccs3)c(Cl)c12` [Compound 63], the IC50 is reported as over 100 µM. With `Cc1cc(C(=O)NNC(=O)c2sc3ccccc3c2Cl)n(C)n1` [Compound 64, 2,5-Dimethyl-2H-pyrazole-3-carboxylic acid N′-(3-chloro-benzo[b]thiophene-2-carbonyl)-hydrazide] the IC50 was over 100 µM. With `Cc1cc(C(=O)NNC(=O)c2cccs2)n(C)n1` [Compound 66, 2,5-Dimethyl-2H-pyrazole-3-carboxylic acid N′-(thiophene-2-carbonyl)-hydrazide] the IC50 was over 100 µM. `Cc1cc(C(=O)NNC(=O)c2cccs2)n(C(C)(C)C)n1` [Compound 68, Thiophene-2-carboxylic acid N′-(2-tert-butyl-5-methyl-2H-pyrazole-3-carbonyl)-hydrazide] was tested, and the IC50 was over 100 µM. For `Cn1nc(C(C)(C)C)cc1C(=O)NNC(=O)c1ccc(Cl)s1` [Compound 69, 5-tert-Butyl-2-methyl-2H-pyrazole-3-carboxylic acid N′-(5-chloro-thiophene-2-carbonyl)-hydrazide], the IC50 was 1 to 50 µM. With `Cn1nc(C(C)(C)C)cc1C(=O)NNC(=O)c1cccs1` [Compound 70, Thiophene-2-carboxylic acid N′-(5-tert-butyl-2-methyl-2H-pyrazole-3-carbonyl)-hydrazide] the IC50 was over 100 µM. `CCn1nc(C)c(Br)c1C(=O)NNC(=O)c1ccc(Br)s1` [Compound 71, 4Bromo-2-ethyl-5-methyl-2H-pyrazole-3-carboxylic acid N′-(5-bromo-thiophene-2-carbonyl)-hydrazide] showed an IC50 of 1 to 50 µM. `CCn1nc(C)c(Br)c1C(=O)NNC(=O)c1scc(C)c1Cl` [Compound 72, 4-Bromo-2-ethyl-5-methyl-2H-pyrazole-3-carboxylic acid N′-(3-chloro-4-methylthiophene-2-carbonyl)-hydrazide] gave an IC50 of over 100 µM. In the case of `CCn1nc(C)c(Br)c1C(=O)NNC(=O)c1cc(Br)c(Br)s1` [Compound 74, 4-Bromo-2-ethyl-5-methyl-2H-pyrazole-3-carboxylic acid N′-(4,5-di-bromo-thiophene-2-carbonyl)-hydrazide], the IC50 is reported as over 100 µM. For `CCCC(=O)NNC(=O)c1cccs1` [Compound 75, Thiophene-2-carboxylic acid N′-butyryl-hydrazide], the IC50 was 1 to 50 µM. `CCCC(=O)NNC(=O)c1ccc(C)s1` [Compound 76, 5-Methyl-thiophene-2-carboxylic acid N′-butyryl-hydrazide] showed an IC50 of 50 to 100 µM. For `CCCC(=O)NNC(=O)c1ccc(Br)s1` [Compound 77, 5-Bromo-thiophene-2-carboxylic acid N′-butyryl-hydrazide], the IC50 was 1 to 50 µM. Work on `O=C(CCCCCBr)NNC(=O)c1cccs1` [Compound 78, Thiophene-2-carboxylic acid N′-(6-bromo-hexanoyl)-hydrazide] yielded an IC50 of 1 to 50 µM. `CCCCCCC(=O)NNC(=O)c1cccs1` [Compound 79, Thiophene-2-carboxylic acid N′-heptanoyl-hydrazide] was tested, and the IC50 was 1 to 50 µM. With `Cc1csc(C(=O)NNC(=O)CCCCCBr)c1Cl` [Compound 80, 3-Chloro-4-methyl-thiophene-2-carboxylic acid N′-(6-bromo-hexanoyl)-hydrazide] the IC50 was 1 to 50 µM. For `CCCCCCC(=O)NNC(=O)c1scc(C)c1Cl` [Compound 81, 3-Chloro-4-methyl-thiophene-Z-carboxylic acid N′-heptanoyl-hydrazide], the IC50 was 1 to 50 µM. In the case of `Cc1ccc(C(=O)NNC(=O)CCCCCBr)s1` [Compound 82, 5-Methyl-thiophene-2-carboxylic acid N′-(6-bromohexanoyl)-hydrazide], the IC50 is reported as 1 to 50 µM. `CCCCCCC(=O)NNC(=O)c1ccc(C)s1` [Compound 83, 5-Methyl-thiophene-2-carboxylic acid N′-heptanoyl-hydrazide] was tested, and the IC50 was 1 to 50 µM. `CCCCCCC(=O)NNC(=O)c1ccc(Br)s1` [Compound 84, 5-Bromo-thiophene-2-carboxylic acid N′-heptanoyl-hydrazide] was tested, and the IC50 was 1 to 50 µM. `CCCCCCCC(=O)NNC(=O)c1sccc1Br` [Compound 85, 3-Bromo-thiophene-2carboxylic acid N′-octanoyl-hydrazide] gave an IC50 of 1 to 50 µM. `CCCCCCCCCCCC(=O)NNC(=O)c1cccs1` [Compound 86, Thiophene-2-carboxylic acid N′-dodecanoyl-hydrazide] was tested, and the IC50 was 1 to 50 µM. `Cc1ccc(C(=O)NNC(=O)CCC2CCCC2)s1` [Compound 87, 5-Methyl-thiophene-2-carboxylic acid N′-(3-cyclopentyl-propionyl)-hydrazide] was tested, and the IC50 was 1 to 50 µM. For `COC(=O)CCCC(=O)NNC(=O)c1ccc(C)s1` [Compound 88], the IC50 was over 100 µM. `CCCCCCC(=O)NNC(=O)c1ccco1` [Compound 89, Furan-2-carboxylic acid N′-heptanoyl-hydrazide] showed an IC50 of 1 to 50 µM. Work on `O=C(CCC1CCCC1)NNC(=O)c1ccco1` [Compound 90, Furan-2-carboxylic acid N′-(3-cyclopentyl-propionyl)-hydrazide] yielded an IC50 of 1 to 50 µM. Molecule `CCCCCCCC(=O)NNC(=O)c1c(C)noc1C` [Compound 91, 3,5-Dimethyl-isoxazole-4carboxylic acid N′-octanoyl-hydrazide] has an IC50 of 1 to 50 µM. Molecule `CCCCCCCC(=O)NNC(=O)c1c(Br)c(C)nn1CC` [Compound 92, 4-Bromo-2-ethyl-5-methyl-2H-pyrazole-3-carboxylic acid N′-octanoyl-hydrazide] has an IC50 of 50 to 100 µM. Work on `CCCCCCCC(=O)NNC(=O)c1ccnc(Cl)c1` [Compound 93, 2-Chloro-isonicotinic acid N′-octanoyl-hydrazide] yielded an IC50 of 1 to 50 µM.
